Results reported in patent US10723705B2, “Heterocyclic compounds and uses thereof” (Incyte Corporation, priority 2015, dated 2020).

These compounds were tested against Human recombinant Histone Deacetylase 8 (HDAC8) (Homo sapiens (Human), UniProt Q9BY41) (assay: HDAC8 Enzymatic Assay (HDAC-Glo I/II luminescence)). Settings: HDAC8; read-out: IC50.
Assay type: biochemical
Procedure, shortened: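 Human recombinant HDAC8 (1.5 nM final) preincubated with compound for 30 min, then reacted with 50 μM Boc-GAK(Ac)-aminoluciferin plus trypsin-containing developer for 15 min at room temperature, pH 8.0, 0.5% DMSO. Luminescence read-out; IC50 from percent control activity versus log concentration.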

Human recombinant Histone Deacetylase 8 (HDAC8), sequence (Q9BY41 whole entry): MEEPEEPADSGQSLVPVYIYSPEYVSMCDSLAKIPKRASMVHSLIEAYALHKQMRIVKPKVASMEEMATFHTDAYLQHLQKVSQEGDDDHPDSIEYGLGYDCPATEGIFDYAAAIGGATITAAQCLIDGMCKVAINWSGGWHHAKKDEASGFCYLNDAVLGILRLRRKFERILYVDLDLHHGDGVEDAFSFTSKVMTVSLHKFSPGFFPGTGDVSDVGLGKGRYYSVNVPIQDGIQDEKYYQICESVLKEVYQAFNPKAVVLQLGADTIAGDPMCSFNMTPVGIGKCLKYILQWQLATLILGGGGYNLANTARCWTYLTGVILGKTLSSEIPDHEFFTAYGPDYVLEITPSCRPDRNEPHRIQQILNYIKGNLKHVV

SMILES	IC50 [µM]
O=C(NO)C(Cc1ccccc1)n1cc2cccc(C(=O)N3CCOCC3)c2n1 (stereo not drawn) [Compound I-0173, N-hydroxy-2-[7-(morpholin-4-ylcarbonyl)-2H-indazol-2-yl]-3-phenylpropanamide]	1.17
O=C(NO)C(Cc1ccccc1)n1cc2cccc(CNC3CC3)c2n1 (stereo not drawn) [Compound I-0180, 2-{7-[(Cyclopropylamino)methyl]-2H-indazol-2-yl}-N-hydroxy-3-phenylpropanamide]	0.469

Same assay, conditions: class symbols, Table 14; read-out: HDAC8 IC50

SMILES	IC50 [µM]
CN1CCN(c2ccc(-c3cccc4nn(C(Cc5ccccc5)C(=O)NO)cc34)cc2)CC1 (stereo not drawn) [Compound I-0148, N-hydroxy-2-(4-(4-(4-methylpiperazin-1-yl)phenyl)-2H-indazol-2-yl)-3-phenylpropanamide]	0.05 to 0.2
CN1CCN(c2ccc(-c3cccc4nn(C(Cc5ccccc5)C(=O)NO)cc34)cn2)CC1 (stereo not drawn) [Compound I-0149, N-hydroxy-2-(4-(6-(4-methylpiperazin-1-yl)pyridin-3-yl)-2H-indazol-2-yl)-3-phenylpropanamide]	0.05 to 0.2
COCc1ccc(-c2ccn3c(C(Cc4ccccc4)C(=O)NO)cnc3c2)cc1 (stereo not drawn) [Compound I-0150, N-hydroxy-2-(7-(4-(methoxymethyl)phenyl)imidazo[1,2-a]pyridin-3-yl)-3-phenylpropanamide]	> 0.5
CN1CCN(c2ccc(-c3ccn4c(C(Cc5ccccc5)C(=O)NO)cnc4c3)cc2)CC1 (stereo not drawn) [Compound I-0151, N-hydroxy-2-(7-(4-(4-methylpiperazin-1-yl)phenyl)imidazo[1,2-a]pyridin-3-yl)-3-phenylpropanamide]	> 0.5
CN1CCN(c2ccc(-c3ccn4c(C(Cc5ccccc5)C(=O)NO)cnc4c3)cn2)CC1 (stereo not drawn) [Compound I-0152, N-hydroxy-2-(7-(6-(4-methylpiperazin-1-yl)pyridin-3-yl)imidazo[1,2-a]pyridin-3-yl)-3-phenylpropanamide]	0.2 to 0.5
O=C(NO)C(Cc1ccccc1)n1ncc2cc(C3CCC(N4CCCC4)CC3)ccc21 (stereo not drawn) [Compound I-0153, N-hydroxy-3-phenyl-2-(5-(4-(pyrrolidin-1-yl)cyclohexyl)-1H-indazol-1-yl)propanamide]	0.05 to 0.2
O=C(NO)C(Cc1ccccc1)n1nc2c(-c3ccncc3)cccc2c1C#CC1CC1 (stereo not drawn) [Compound I-0154, 2-(3-(cyclopropylethynyl)-7-(pyridin-4-yl)-2H-indazol-2-yl)-N-hydroxy-3-phenylpropanamide]	≤ 0.05
O=C(NO)C(Cc1ccccc1)n1nc2c(-c3cccnc3)cccc2c1C#CC1CC1 (stereo not drawn) [Compound I-0155, 2-(3-(cyclopropylethynyl)-7-(pyridin-3-yl)-2H-indazol-2-yl)-N-hydroxy-3-phenylpropanamide]	≤ 0.05
O=C(NO)C(Cc1ccccc1)n1nc2c(-c3cncnc3)cccc2c1C#CC1CC1 (stereo not drawn) [Compound I-0156, 2-(3-(cyclopropylethynyl)-7-(pyrimidin-5-yl)-2H-indazol-2-yl)-N-hydroxy-3-phenylpropanamide]	≤ 0.05
NC(=O)c1cccc(-c2cccc3c(C#CC4CC4)n(C(Cc4ccccc4)C(=O)NO)nc23)c1 (stereo not drawn) [Compound I-0157, 3-(3-(cyclopropylethynyl)-2-(1-(hydroxyamino)-1-oxo-3-phenylpropan-2-yl)-2H-indazol-7-yl)benzamide]	≤ 0.05
CNC(=O)c1cccc(-c2cccc3c(C#CC4CC4)n(C(Cc4ccccc4)C(=O)NO)nc23)c1 (stereo not drawn) [Compound I-0158, 3-(3-(cyclopropylethynyl)-2-(1-(hydroxyamino)-1-oxo-3-phenylpropan-2-yl)-2H-indazol-7-yl)-N-methylbenzamide]	≤ 0.05
CN(C)C(=O)c1cccc(-c2cccc3c(C#CC4CC4)n(C(Cc4ccccc4)C(=O)NO)nc23)c1 (stereo not drawn) [Compound I-0159, 3-(3-(cyclopropylethynyl)-2-(1-(hydroxyamino)-1-oxo-3-phenylpropan-2-yl)-2H-indazol-7-yl)-N,N-dimethylbenzamide]	≤ 0.05
O=C(NO)C(Cc1ccccc1)n1nc2c(C3CC3)cccc2c1C#CC1CC1 (stereo not drawn) [Compound I-0160, 2-(7-cyclopropyl-3-(cyclopropylethynyl)-2H-indazol-2-yl)-N-hydroxy-3-phenylpropanamide]	≤ 0.05
Cc1cccc2c(C#CC3CC3)n(C(Cc3ccccc3)C(=O)NO)nc12 (stereo not drawn) [Compound I-0161, 2-(3-(cyclopropylethynyl)-7-methyl-2H-indazol-2-yl)-N-hydroxy-3-phenylpropanamide]	≤ 0.05
O=C(NO)C(Cc1ccccc1)c1cnc2c(-c3ccncc3)cccn12 (stereo not drawn) [Compound I-0162, N-hydroxy-3-phenyl-2-(8-(pyridin-4-yl)imidazo[1,2-a]pyridin-3-yl)propanamide]	0.2 to 0.5
O=C(NO)C(Cc1ccccc1)c1cnc2c(-c3cccnc3)cccn12 (stereo not drawn) [Compound I-0163, N-hydroxy-3-phenyl-2-(8-(pyridin-3-yl)imidazo[1,2-a]pyridin-3-yl)propanamide]	> 0.5
O=C(NO)C(Cc1ccccc1)c1cnc2c(-c3cncnc3)cccn12 (stereo not drawn) [Compound I-0164, N-hydroxy-3-phenyl-2-(8-pyrimidin-5-ylimidazo[1,2-a]pyridin-3-yl)propanamide]	> 0.5
COCCn1cc(-c2cccc3c(C#CC4CC4)n(C(Cc4ccccc4)C(=O)NO)nc23)c(C)n1 (stereo not drawn) [Compound I-0165, 2-(3-(cyclopropylethynyl)-7-(1-(2-methoxyethyl)-3-methyl-1H-pyrazol-4-yl)-2H-indazol-2-yl)-N-hydroxy-3-phenylpropanamide]	≤ 0.05
Cc1n[nH]cc1-c1cccc2c(C#CC3CC3)n(C(Cc3ccccc3)C(=O)NO)nc12 (stereo not drawn) [Compound I-0166, 2-(3-(cyclopropylethynyl)-7-(3-methyl-1H-pyrazol-4-yl)-2H-indazol-2-yl)-N-hydroxy-3-phenylpropanamide]	≤ 0.05

SMILES	IC50 [µM]
NC(=O)c1ccc(-c2cccn3c(C(Cc4ccccc4)C(=O)NO)cnc23)cc1 (stereo not drawn) [Compound I-0167, 4-(3-(1-(hydroxyamino)-1-oxo-3-phenylpropan-2-yl)imidazo[1,2-a]pyridin-8-yl)benzamide]	0.2 to 0.5
CN(C)C(=O)c1ccc(-c2cccn3c(C(Cc4ccccc4)C(=O)NO)cnc23)cc1 (stereo not drawn) [Compound I-0168, 4-(3-(1-(hydroxyamino)-1-oxo-3-phenylpropan-2-yl)imidazo[1,2-a]pyridin-8-yl)-N,N-dimethylbenzamide]	> 0.5
NC(=O)c1cccc(-c2cccn3c(C(Cc4ccccc4)C(=O)NO)cnc23)c1 (stereo not drawn) [Compound I-0169, 3-(3-(1-(hydroxyamino)-1-oxo-3-phenylpropan-2-yl)imidazo[1,2-a]pyridin-8-yl)benzamide]	0.2 to 0.5
O=C(NO)C(Cc1ccccc1)c1cnc2c(C3CC3)cccn12 (stereo not drawn) [Compound I-0170, 2-(8-cyclopropylimidazo[1,2-a]pyridin-3-yl)-N-hydroxy-3-phenylpropanamide]	> 0.5
Cc1cccn2c(C(Cc3ccccc3)C(=O)NO)cnc12 (stereo not drawn) [Compound I-0171, N-hydroxy-2-(8-methylimidazo[1,2-a]pyridin-3-yl)-3-phenylpropanamide]	0.2 to 0.5
COC(=O)C(Cc1ccccc1)n1cc2cccc(C(=O)N3CCC(F)(F)CC3)c2n1 (stereo not drawn) [Compound I-0172, methyl 2-(7-(4,4-difluoropiperidine-1-carbonyl)-2H-indazol-2-yl)-3-phenylpropanoate]	0.2 to 0.5
O=C(NO)C(Cc1ccccc1)n1cc2cccc(C(=O)N3CCOCC3)c2n1 (stereo not drawn) [Compound I-0173, N-hydroxy-2-[7-(morpholin-4-ylcarbonyl)-2H-indazol-2-yl]-3-phenylpropanamide]	> 0.5
O=C(NO)C(Cc1ccccc1)n1cc2cccc(C(=O)N3CCC4(CC3)COC4)c2n1 (stereo not drawn) [Compound I-0174, 2-(7-(2-oxa-7-azaspiro[3.5]nonane-7-carbonyl)-2H-indazol-2-yl)-N-hydroxy-3-phenylpropanamide]	> 0.5
O=C(NO)C(Cc1ccccc1)n1cc2cccc(C(=O)N3CCC4(CCOCC4)CC3)c2n1 (stereo not drawn) [Compound I-0175, 2-(7-(3-oxa-9-azaspiro[5.5]undecane-9-carbonyl)-2H-indazol-2-yl)-N-hydroxy-3-phenylpropanamide]	> 0.5
O=C(NC1CCOCC1)c1cccc2cn(C(Cc3ccccc3)C(=O)NO)nc12 (stereo not drawn) [Compound I-0176, 2-(1-(hydroxyamino)-1-oxo-3-phenylpropan-2-yl)-N-(tetrahydro-2H-pyran-4-yl)-2H-indazole-7-carboxamide]	0.05 to 0.2
O=C(NCC1CCOCC1)c1cccc2cn(C(Cc3ccccc3)C(=O)NO)nc12 (stereo not drawn) [Compound I-0177, 2-(1-(hydroxyamino)-1-oxo-3-phenylpropan-2-yl)-N-((tetrahydro-2H-pyran-4-yl)methyl)-2H-indazole-7-carboxamide]	≤ 0.05
O=C(NCCC1CCOCC1)c1cccc2cn(C(Cc3ccccc3)C(=O)NO)nc12 (stereo not drawn) [Compound I-0178, 2-(1-(hydroxyamino)-1-oxo-3-phenylpropan-2-yl)-N-(2-(tetrahydro-2H-pyran-4-yl)ethyl)-2H-indazole-7-carboxamide]	≤ 0.05
O=C(NCCN1CCOCC1)c1cccc2cn(C(Cc3ccccc3)C(=O)NO)nc12 (stereo not drawn) [Compound I-0179, 2-(1-(hydroxyamino)-1-oxo-3-phenylpropan-2-yl)-N-(2-morpholinoethyl)-2H-indazole-7-carboxamide]	0.05 to 0.2
O=C(NO)C(Cc1ccccc1)n1cc2cccc(CNC3CC3)c2n1 (stereo not drawn) [Compound I-0180, 2-{7-[(Cyclopropylamino)methyl]-2H-indazol-2-yl}-N-hydroxy-3-phenylpropanamide]	0.2 to 0.5
O=C(NO)C(Cc1ccccc1)n1cc2cccc(CNCC3CC3)c2n1 (stereo not drawn) [Compound I-0181, 2-(7-((cyclopropylmethylamino)methyl)-2H-indazol-2-yl)-N-hydroxy-3-phenylpropanamide]	> 0.5
O=C(NO)C(Cc1ccccc1)n1cc2cccc(CNC3CCOCC3)c2n1 (stereo not drawn) [Compound I-0182, N-hydroxy-3-phenyl-2-(7-((tetrahydro-2H-pyran-4-ylamino)methyl)-2H-indazol-2-yl)propanamide]	> 0.5
O=C(NO)C(Cc1ccccc1)n1cc2cccc(CN3CCOCC3)c2n1 (stereo not drawn) [Compound I-0183, N-hydroxy-2-(7-(morpholinomethyl)-2H-indazol-2-yl)-3-phenylpropanamide]	0.2 to 0.5
COC1CCN(Cc2cccc3cn(C(Cc4ccccc4)C(=O)NO)nc23)CC1 (stereo not drawn) [Compound I-0184, N-hydroxy-2-(7-((4-methoxypiperidin-1-yl)methyl)-2H-indazol-2-yl)-3-phenylpropanamide]	0.2 to 0.5
